Key:
Assay in all cases: relative viability (nuclei count vs DMSO), 5 days (fraction); higher = more cells survive
CAL-12T = system: CAL-12T
Summary of the method: (§1)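 Values are medians from duplicate plates. Each reflects relative viability, defined as the nuclei count of treated wells over that of vehicle wells. Lung cancer cell lines in 1536-well plates were pin-tool dosed one day after seeding with one drug alone or with a fixed anchor-drug dose plus five library-drug doses (not always all listed) in √10 steps, then fixed, stained and imaged at 4× after 5 days.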

ChaGo-K-1 = system: ChaGo-K-1
Summary of the method: as §1

EMC-BAC-2 = system: EMC-BAC-2
Summary of the method: as §1

HCC-366 = system: HCC-366
Summary of the method: as §1

HCC-78 = system: HCC-78
Summary of the method: as §1

HOP-62 = system: HOP-62
Summary of the method: as §1

LC-2-ad = system: LC-2-ad
Summary of the method: as §1

LK-2 = system: LK-2
Summary of the method: as §1

NCI-H1355 = system: NCI-H1355
Summary of the method: as §1

NCI-H1734 = system: NCI-H1734
Summary of the method: as §1

NCI-H1993 = system: NCI-H1993
Summary of the method: as §1

NCI-H2009 = system: NCI-H2009
Summary of the method: as §1

NCI-H2085 = system: NCI-H2085
Summary of the method: as §1

NCI-H2228 = system: NCI-H2228
Summary of the method: as §1

NCI-H2347 = system: NCI-H2347
Summary of the method: as §1

NCI-H2405 = system: NCI-H2405
Summary of the method: as §1

NCI-H3122 = system: NCI-H3122
Summary of the method: as §1

NCI-H596 = system: NCI-H596
Summary of the method: as §1

NCI-H838 = system: NCI-H838
Summary of the method: as §1

PC-14 = system: PC-14
Summary of the method: as §1

RERF-LC-KJ = system: RERF-LC-KJ
Summary of the method: as §1

SK-MES-1 = system: SK-MES-1
Summary of the method: as §1

SW 1573 = system: SW 1573
Summary of the method: as §1

Cc1cnc(-c2cnc(NCCNc3ccc(C#N)cn3)nc2-c2ccc(Cl)cc2Cl)[nH]1 + COc1cc2c(Oc3ccc(NC(=O)C4(C(=O)Nc5ccc(F)cc5)CC4)cc3F)ccnc2cc1OCCCN1CCOCC1 [Foretinib] (partner 0.25 µM)
relative viability (CAL-12T; first compound 0.08 µM): 1.07 | relative viability (CAL-12T; first compound 0.253 µM): 0.946 | relative viability (CAL-12T; first compound 0.8 µM): 1.15 | relative viability (CAL-12T; first compound 2.53 µM): 0.979 | relative viability (ChaGo-K-1; first compound 0.08 µM): 0.941 | relative viability (ChaGo-K-1; first compound 0.253 µM): 0.84 | relative viability (ChaGo-K-1; first compound 0.8 µM): 0.945 | relative viability (ChaGo-K-1; first compound 2.53 µM): 0.921 | relative viability (EMC-BAC-2; first compound 0.08 µM): 1.1 | relative viability (EMC-BAC-2; first compound 0.253 µM): 0.964 | relative viability (EMC-BAC-2; first compound 0.8 µM): 1.02 | relative viability (EMC-BAC-2; first compound 2.53 µM): 0.939 | relative viability (HCC-366; first compound 0.08 µM): 1.01 | relative viability (HCC-366; first compound 0.253 µM): 0.964 | relative viability (HCC-366; first compound 0.8 µM): 0.892 | relative viability (HCC-366; first compound 2.53 µM): 0.922 | relative viability (HCC-78; first compound 0.08 µM): 0.471 | relative viability (HCC-78; first compound 0.253 µM): 0.488 | relative viability (HCC-78; first compound 0.8 µM): 0.525 | relative viability (HCC-78; first compound 2.53 µM): 0.568 | relative viability (HOP-62; first compound 0.08 µM): 1.05 | relative viability (HOP-62; first compound 0.253 µM): 1.02 | relative viability (HOP-62; first compound 0.8 µM): 1.12 | relative viability (HOP-62; first compound 2.53 µM): 0.947 | relative viability (LC-2-ad; first compound 0.08 µM): 0.996 | relative viability (LC-2-ad; first compound 0.253 µM): 0.711 | relative viability (LC-2-ad; first compound 2.53 µM): 1.03 | relative viability (LK-2; first compound 0.08 µM): 1.6 | relative viability (LK-2; first compound 0.253 µM): 0.82 | relative viability (LK-2; first compound 0.8 µM): 0.942 | relative viability (LK-2; first compound 2.53 µM): 1.21 | relative viability (NCI-H1355; first compound 0.08 µM): 0.901 | relative viability (NCI-H1355; first compound 0.253 µM): 0.867 | relative viability (NCI-H1355; first compound 0.8 µM): 0.97 | relative viability (NCI-H1355; first compound 2.53 µM): 0.96 | relative viability (NCI-H1734; first compound 0.08 µM): 0.926 | relative viability (NCI-H1734; first compound 0.253 µM): 0.762 | relative viability (NCI-H1734; first compound 0.8 µM): 0.834 | relative viability (NCI-H1734; first compound 2.53 µM): 0.83 | relative viability (NCI-H1993; first compound 0.08 µM): 0.902 | relative viability (NCI-H1993; first compound 0.253 µM): 0.652 | relative viability (NCI-H1993; first compound 0.8 µM): 0.754 | relative viability (NCI-H1993; first compound 2.53 µM): 0.889 | relative viability (NCI-H2009; first compound 0.08 µM): 1.27 | relative viability (NCI-H2009; first compound 0.253 µM): 1.21 | relative viability (NCI-H2009; first compound 0.8 µM): 1.35 | relative viability (NCI-H2009; first compound 2.53 µM): 1.03 | relative viability (NCI-H2085; first compound 0.08 µM): 0.989 | relative viability (NCI-H2085; first compound 0.253 µM): 0.88 | relative viability (NCI-H2085; first compound 0.8 µM): 0.762 | relative viability (NCI-H2085; first compound 2.53 µM): 0.937 | relative viability (NCI-H2228; first compound 0.08 µM): 0.954 | relative viability (NCI-H2228; first compound 0.253 µM): 0.761 | relative viability (NCI-H2228; first compound 0.8 µM): 0.898 | relative viability (NCI-H2228; first compound 2.53 µM): 0.589 | relative viability (NCI-H2347; first compound 0.08 µM): 0.963 | relative viability (NCI-H2347; first compound 0.253 µM): 1.11 | relative viability (NCI-H2347; first compound 0.8 µM): 0.877 | relative viability (NCI-H2347; first compound 2.53 µM): 0.841 | relative viability (NCI-H2405; first compound 0.08 µM): 1.04 | relative viability (NCI-H2405; first compound 0.253 µM): 0.974 | relative viability (NCI-H2405; first compound 0.8 µM): 1.05 | relative viability (NCI-H2405; first compound 2.53 µM): 0.845 | relative viability (NCI-H3122; first compound 0.08 µM): 0.943 | relative viability (NCI-H3122; first compound 0.8 µM): 0.935 | relative viability (NCI-H3122; first compound 2.53 µM): 0.914 | relative viability (NCI-H596; first compound 0.08 µM): 0.929 | relative viability (NCI-H596; first compound 0.253 µM): 0.776 | relative viability (NCI-H596; first compound 0.8 µM): 0.872 | relative viability (NCI-H596; first compound 2.53 µM): 0.827 | relative viability (NCI-H838; first compound 0.08 µM): 1.04 | relative viability (NCI-H838; first compound 0.253 µM): 1.02 | relative viability (NCI-H838; first compound 0.8 µM): 1.15 | relative viability (NCI-H838; first compound 2.53 µM): 1.21 | relative viability (PC-14; first compound 0.08 µM): 0.978 | relative viability (PC-14; first compound 0.253 µM): 0.852 | relative viability (PC-14; first compound 0.8 µM): 0.941 | relative viability (PC-14; first compound 2.53 µM): 0.894 | relative viability (RERF-LC-KJ; first compound 0.08 µM): 0.906 | relative viability (RERF-LC-KJ; first compound 0.253 µM): 0.796 | relative viability (RERF-LC-KJ; first compound 0.8 µM): 0.826 | relative viability (RERF-LC-KJ; first compound 2.53 µM): 0.832 | relative viability (SK-MES-1; first compound 0.08 µM): 1.09 | relative viability (SK-MES-1; first compound 0.253 µM): 0.909 | relative viability (SK-MES-1; first compound 0.8 µM): 0.942 | relative viability (SK-MES-1; first compound 2.53 µM): 1.02 | relative viability (SW 1573; first compound 0.08 µM): 0.929 | relative viability (SW 1573; first compound 0.253 µM): 0.87 | relative viability (SW 1573; first compound 0.8 µM): 0.907 | relative viability (SW 1573; first compound 2.53 µM): 0.769
